IC50 data for 10 molecules are collected here from patent US20240010684A1, “MASP INHIBITORY COMPOUNDS AND USES THEREOF” (BAYER AKTIENGESELLSCHAFT, priority 2020, published 2024).

In one experiment the target is human MASP2 (Homo sapiens (Human), UniProt O00187). Briefly: Biochemical human MASP2 assay (FRET substrate). The note with it: Average IC50; recombinant human MASP2; read-out: human MASP2 IC50. The gist of the method: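 Mature recombinant human MASP2, expressed in HEK293 and purified by Ni-NTA affinity, was reacted with a DABCYL FRET peptide substrate (added as a 60 μM solution) for 60-120 min at 32 C. Fluorescence increase was read at ex 340/em 490 nm; IC50 was derived from % inhibition versus compound concentration.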

The target in another experiment is human MASP1 (Homo sapiens (Human), UniProt P48740). Briefly: Biochemical human MASP1 assay (FRET substrate). The settings on record: Average IC50; recombinant human MASP1; read-out: human MASP1 IC50. In a few lines:
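Recombinant human MASP1 (aa 297-699, C-terminal His tag, HEK293-expressed, Ni-NTA purified) diluted to 20 nM in 50 mM HEPES pH 8,0, 100 mM NaCl, 0,01% CHAPS, 0.5 mM glutathione, preincubated with compound in DMSO; reaction started with 20 μM ABZ/Dnp FRET substrate solution. Fluorescence (ex 320/em 420 nm) after 60-120 min at 32 C; IC50 from % inhibition.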

The subject of experiment [1] is Human C3-DEPOSITION SERUM. Briefly: C3 deposition assay, human serum on mannan-coated plates. The note with it: Average IC50, read-out: Human C3-DEPOSITION SERUM IC50. It counts as biochemical. How it is done:
3. C3 Deposition Assay (Human, Rat, Mouse, Dog, Pig))
The C3 deposition assay was conducted essentially as described (reference). Multiwell plates (Greiner-Nunc 384 Maxi Sorp #464718) were coated over night with Mannan from Saccharomyces cerevisiae (Sigma M7504, 10 μg/mL in 0.05 M carbonate-bicarbonate buffer, pH 9.6) at 4° C. Wells were washed three times with TBS and subsequently incubated for 2 hours with 50 μL of 1% bovine serum albumin (BSA) in Tris-buffered saline (TBS) at 37° C. in order to block non-specific binding. After this step and each of the following incubation steps wells were washed three times with C3 wash buffer (TBS; 0.05% Tween 20; 5 mM CaCl2). […] When appropriately developed the color reaction was stopped by addition of 25 μL of stop solution (Sigma S5814) and quantified on a photometer by measuring absorption at a wavelength of 450 nm. Antibodies were diluted in C3 wash buffer supplemented with 0.5% BSA.

pIC50: −log10 of the molar value. Where a SMILES comes first, the peptide text is derived from it. Bridges are numbered along the chain shown (N, C = ends). [ ]: non-standard residue; d: D form. ξ: configuration not given here. tBuAla = CC(C)(C)C[C@H](N)C(=O)O; Pen = CC(C)(S)[C@H](N)C(=O)O; ξIle = CC[C@H](C)C(N)C(=O)O; NMeC = CN[C@@H](CS)C(=O)O; Orn = NCCC[C@H](N)C(=O)O; Dab = NCC[C@H](N)C(=O)O; Dap = NC[C@H](N)C(=O)O; Ahx = NCCCCCC(=O)O

Chain of human MASP2 (O00187 other isoform, or with tags, fused parts or gaps): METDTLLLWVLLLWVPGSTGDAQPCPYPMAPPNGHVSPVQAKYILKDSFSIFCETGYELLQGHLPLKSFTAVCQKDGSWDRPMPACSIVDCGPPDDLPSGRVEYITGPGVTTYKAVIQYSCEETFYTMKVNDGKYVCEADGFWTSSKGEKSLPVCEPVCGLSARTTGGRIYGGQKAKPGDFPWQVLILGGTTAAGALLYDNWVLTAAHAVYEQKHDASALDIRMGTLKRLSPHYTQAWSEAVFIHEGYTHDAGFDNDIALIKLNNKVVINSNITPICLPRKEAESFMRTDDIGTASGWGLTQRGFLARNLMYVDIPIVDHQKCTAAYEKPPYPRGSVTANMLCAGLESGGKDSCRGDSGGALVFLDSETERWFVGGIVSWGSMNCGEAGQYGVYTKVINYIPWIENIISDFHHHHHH
Chain of human MASP1 (P48740 other isoform, or with tags, fused parts or gaps): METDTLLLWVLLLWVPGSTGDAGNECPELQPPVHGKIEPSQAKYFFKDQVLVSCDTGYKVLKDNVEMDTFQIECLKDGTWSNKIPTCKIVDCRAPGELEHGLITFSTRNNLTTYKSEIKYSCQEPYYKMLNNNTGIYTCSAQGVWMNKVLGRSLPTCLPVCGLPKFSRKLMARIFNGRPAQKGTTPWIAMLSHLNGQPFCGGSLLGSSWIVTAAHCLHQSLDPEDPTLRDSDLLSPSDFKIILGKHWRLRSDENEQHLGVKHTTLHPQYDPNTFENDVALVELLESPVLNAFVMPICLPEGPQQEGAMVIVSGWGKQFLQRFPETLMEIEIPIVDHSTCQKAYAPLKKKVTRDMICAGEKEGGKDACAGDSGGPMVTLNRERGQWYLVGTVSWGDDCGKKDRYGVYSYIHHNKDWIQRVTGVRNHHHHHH

Regarding `CC[C@H](C)[C@@H]1NC(=O)[C@H](C)NC(=O)CNC(=O)C[C@@H](C(N)=O)NC(=O)[C@@H]2CCCN2C(=O)[C@H]([C@@H](C)CC)NC(=O)[C@@H]2CSSC[C@H](NC1=O)C(=O)N[C@@H](CO)C(=O)N[C@@H](CCCNC(=N)N)C(=O)N[C@@H](CO)C(=O)N[C@@H](CC(C)C)C(=O)N1CCC[C@H]1C(=O)N1CCC[C@H]1C(=O)N[C@@H]([C@@H](C)CC)C(=O)N2` [Example 37] (GAICSRSLPPICIPD-NH2; disulfide 4-12; lactam N-15), the pIC50 at human MASP2 is 6.85; on human MASP1, 7.80; in experiment [1], 7.23.
For `CC[C@H](C)[C@@H]1NC(=O)[C@H](C)NC(=O)CCCCCNC(=O)C[C@@H](C(N)=O)NC(=O)[C@@H]2CCCN2C(=O)[C@H]([C@@H](C)CC)NC(=O)[C@H]2NC(=O)[C@H]([C@@H](C)CC)NC(=O)[C@@H]3C[C@@H]4CCCC[C@@H]4N3C(=O)[C@H]3CCCN3C(=O)[C@H](CC(C)C)NC(=O)[C@H](CO)NC(=O)[C@H](CCCNC(=N)N)NC(=O)[C@H](CO)NC(=O)[C@H](CSSC2(C)C)NC1=O` [Example 43], the results for the pIC50 (at human MASP2; on human MASP1; in experiment [1]) were 6.92, 8.17 and 7.55, respectively.
Consider `CC[C@H](C)C1NC(=O)[C@@H]2CSSC[C@H](NC(=O)[C@H]([C@@H](C)CC)NC(=O)[C@H](C)NC(=O)[C@@H](N)CCCNC(=O)C[C@@H](C(N)=O)NC(=O)[C@@H]3CCCN3C1=O)C(=O)N[C@@H](CO)C(=O)N[C@@H](CCCNC(=N)N)C(=O)N[C@@H](CO)C(=O)N[C@@H](CC(C)(C)C)C(=O)N1CCC[C@H]1C(=O)N1CCC[C@H]1C(=O)N[C@@H]([C@@H](C)CC)C(=O)N2C` (stereo partly drawn) [Example 44] (H-[Orn]AICSRS[tBuAla]PPI[NMeC][ξIle]PD-NH2; lactam 1-15; disulfide 4-12), for which the pIC50 on human MASP2 is 6.64; at human MASP1, 8.33; in experiment [1] it was 7.63.
The matching figures for `CC[C@H](C)[C@@H]1NC(=O)[C@H](C)NC(=O)CCCCCNC(=O)[C@H](CC(=O)O)NC(=O)[C@@H]2CCCN2C(=O)[C@H]([C@@H](C)CC)NC(=O)[C@@H]2CSSC[C@H](NC1=O)C(=O)N[C@@H](CO)C(=O)N[C@@H](CCCNC(=N)N)C(=O)N[C@@H](CO)C(=O)N[C@@H](CC(C)(C)C)C(=O)N1CCC[C@H]1C(=O)N1CCC[C@H]1C(=O)N[C@@H]([C@@H](C)CC)C(=O)N2` [Example 46] (cyclo(AICSRS[tBuAla]PPICIPD[Ahx]); disulfide 3-11): 7.05, 7.25 and 6.64.
For the molecule `CC[C@H](C)[C@@H]1NC(=O)[C@H](C)NC(=O)[C@@H](N)CSSC[C@@H](C(N)=O)NC(=O)[C@H](CC(=O)O)NC(=O)[C@@H]2CCCN2C(=O)[C@H]([C@@H](C)CC)NC(=O)[C@H]2NC(=O)[C@H]([C@@H](C)CC)NC(=O)[C@@H]3CCCN3C(=O)[C@@H]3CCCN3C(=O)[C@H](CC(C)(C)C)NC(=O)[C@H](CO)NC(=O)[C@H](CCCNC(=N)N)NC(=O)[C@H](CO)NC(=O)[C@H](CSSC2(C)C)NC1=O` [Example 50] (H-CAICSRS[tBuAla]PPI[Pen]IPDC-NH2; disulfide 1-16, 4-12), the pIC50 at human MASP2 was 6.68; at human MASP1, 7.89; in experiment [1] it was 6.64.
`CC[C@H](C)[C@@H]1NC(=O)CCCCCNC(=O)[C@@H]2CCCN2C(=O)[C@H]([C@@H](C)CC)NC(=O)[C@H]2NC(=O)[C@H]([C@@H](C)CC)NC(=O)[C@@H]3CCCN3C(=O)[C@@H]3CCCN3C(=O)[C@H](CC(C)(C)C)NC(=O)[C@H](CO)NC(=O)[C@H](CCCNC(=N)N)NC(=O)[C@H](CO)NC(=O)[C@H](CSSC2(C)C)NC1=O` [Example 51] (cyclo([Ahx]ICSRS[tBuAla]PPI[Pen]IP); disulfide 3-11): the figures for the pIC50 (on human MASP2; on human MASP1; in experiment [1]) were 7.77, 8.20 and 7.55, respectively.
The matching figures for `CC[C@H](C)[C@@H]1NC(=O)[C@H](CN)NC(=O)[C@@H]2CCCN2C(=O)[C@H]([C@@H](C)CC)NC(=O)[C@H]2NC(=O)[C@H]([C@@H](C)CC)NC(=O)[C@@H]3CCCN3C(=O)[C@@H]3CCCN3C(=O)[C@H](CC(C)(C)C)NC(=O)[C@H](CO)NC(=O)[C@H](CCCNC(=N)N)NC(=O)[C@H](CO)NC(=O)[C@H](CSSC2(C)C)NC1=O` [Example 55, N-{3-[(6S,9S,12S,15S,18R,21S,24S,26aS,32S,35R,38S,40aS,45aS)-24-(aminomethyl)-21,32,38-tri[(2S)-butan-2-yl]-6-(2,2-dimethylpropyl)-9,15-bis(hydroxymethyl)-46,46-dimethyl-5,8,11,14,17,20,23,26,31,34,37,40,45-tridecaoxotetratetracontahydro-1H-18,35-(methanodithiomethano)tripyrrolo[1,2-a:1′,2′-d:1″,2″-p][1,4,7,10,13,16,19,22,25,28,31,34,37]tridecaazacyclononatriacontin-12-yl]propyl}guanidine] (cyclo(CSRS[tBuAla]PPI[Pen]IP[Dap]I); disulfide 1-9): 6.05, 7.34 and 6.42.
On the same counts, the results for `CC[C@H](C)[C@@H]1NC(=O)[C@H](CCN)NC(=O)[C@@H]2CCCN2C(=O)[C@H]([C@@H](C)CC)NC(=O)[C@H]2NC(=O)[C@H]([C@@H](C)CC)NC(=O)[C@@H]3CCCN3C(=O)[C@@H]3CCCN3C(=O)[C@H](CC(C)(C)C)NC(=O)[C@H](CO)NC(=O)[C@H](CCCNC(=N)N)NC(=O)[C@H](CO)NC(=O)[C@H](CSSC2(C)C)NC1=O` [Example 56, N-{3-[(6S,9S,12S,15S,18R,21S,24S,26aS,32S,35R,38S,40aS,45aS)-24-(2-aminoethyl)-21,32,38-tri[(2S)-butan-2-yl]-6-(2,2-dimethylpropyl)-9,15-bis(hydroxymethyl)-46,46-dimethyl-5,8,11,14,17,20,23,26,31,34,37,40,45-tridecaoxotetratetracontahydro-1H-18,35-(methanodithiomethano)tripyrrolo[1,2-a:1′,2′-d:1″,2″-p]-[1,4,7,10,13,16,19,22,25,28,31,34,37]tridecaazacyclononatriacontin-12-yl]propyl}guanidine] (cyclo(CSRS[tBuAla]PPI[Pen]IP[Dab]I); disulfide 1-9) are 5.96, 7.07 and 6.25.
The matching figures for `CC[C@H](C)[C@@H]1NC(=O)[C@H](CN)NC(=O)[C@H](CN)NC(=O)[C@H]([C@@H](C)CC)NC(=O)[C@H]2NC(=O)[C@H]([C@@H](C)CC)NC(=O)[C@@H]3CCCN3C(=O)[C@@H]3CCCN3C(=O)[C@H](CC(C)(C)C)NC(=O)[C@H](CO)NC(=O)[C@H](CCCNC(=N)N)NC(=O)[C@H](CO)NC(=O)[C@H](CSSC2(C)C)NC1=O` [Example 57, N-{3-[(5aS,11S,14S,17S,20S,23R,26S,29S,32S,35S,38R,41S,43aS)-29,32-bis(aminomethyl)-26,35,41-tri[(2S)-butan-2-yl]-11-(2,2-dimethylpropyl)-14,20-bis(hydroxymethyl)-44,44-dimethyl-5,10,13,16,19,22,25,28,31,34,37,40,43-tridecaoxodotetracontahydro-5H-23,38-(methanodithiomethano)dipyrrolo[1,2-a:1′,2′-d]-[1,4,7,10,13,16,19,22,25,28,31,34,37]tridecaazacyclononatriacontin-17-yl]propyl}guanidine] (cyclo(CSRS[tBuAla]PPI[Pen]I[Dap][Dap]I); disulfide 1-9): 6.47, 7.34 and 6.63.
For the molecule `CC[C@H](C)[C@@H]1NC(=O)[C@H](C)NC(=O)[C@@H](N)CCCNC(=O)C[C@@H](C(N)=O)NC(=O)[C@@H]2CCCN2C(=O)[C@H]([C@@H](C)CC)NC(=O)[C@H]2NC(=O)[C@H]([C@@H](C)CC)NC(=O)[C@@H]3CCCN3C(=O)[C@@H]3CCCN3C(=O)[C@H](CC(C)(C)C)NC(=O)[C@H](CO)NC(=O)[C@H](CCCNC(=N)N)NC(=O)[C@H](CO)NC(=O)[C@H](CSSC2(C)C)NC1=O` [Example 61] (H-[Orn]AICSRS[tBuAla]PPI[Pen]IPD-NH2; lactam 1-15; disulfide 4-12), the pIC50 was 6.51 at human MASP2, 8.51 on human MASP1 and 7.63 in experiment [1].
